Measurements from ChEMBL document CHEMBL3301361, “Experimental in vitro DMPK and physicochemical data on a set of publicly disclosed compounds”.
Values after ≈ are worked out from the molar mass of the structure shown. Values joined by “and” are separate entries in the source; they are usually repeats but may differ in a detail not shown here. Equal entries are not always repeated.

Key:
physchem [1] = details: pH 7.4 buffer
in vitro [2] = details: human
in vitro [3] = details: hepatocytes
physchem [4] = experiment: physchem
in vitro [5] = details: human, hepatocytes
[6] = buffer, pH 7.4
physchem [7] = experiment: physchem; remark: listed apart in the source
in vitro [8] = details: human, plasma
in vitro [9] = details: SD, HW or BN, rat, plasma
in vitro [10] = details: Beagle, dog, plasma
physchem [11] = details: octan-1-ol/water
physchem [12] = experiment: physchem; remark: listed apart in the source
in vitro [13] = details: mouse, plasma
physchem [14] = experiment: physchem; remark: listed apart in the source
in vitro [15] = details: Dunkin Hartley, guinea pig, plasma

CC/C(=C(/c1ccc(O)cc1)c1ccc(/C=C/C(=O)O)cc1)c1ccccc1
solubility thermodynamic (physchem [1]): 1 µM (≈ 0.37 µg/mL)
microsomal CLint (in vitro [2]; liver microsomes): 33.9 µL/min/mg
hepatocyte CLint (in vitro [3]): 69.2 µL/min/1e6 cells
pKa (physchem [4]): 9.55
hepatocyte CLint (in vitro [5]): 55 µL/min/1e6 cells

CCCc1c2nc(C(=O)O)cc(Cl)c2cc2c(=O)cc(C(=O)O)oc12
pKa (physchem [4]): 3.7

CCN(CC)c1ccc(-c2nn3c(-c4n[nH]c5c4CCC5)nnc3s2)cc1
LogD7.4 [6]: 3.37

O=C(O)c1cc(=O)c2ccc(O)cc2o1
pKa (physchem [7]): < 2
pKa (physchem [4]): 7.3

CS(=O)(=O)c1ccc(-c2cc(C(F)(F)F)ccc2OCC(=O)O)cc1
microsomal CLint (in vitro [2]; liver microsomes): < 3 µL/min/mg
LogD7.4 [6]: -0.87

CCS(=O)(=O)c1cccc(-c2cc(C(F)(F)F)ccc2OCC(=O)O)c1
LogD7.4 [6]: -0.66

Cc1cc(N(C)S(C)(=O)=O)ccc1-c1cc(C(F)(F)F)ccc1OCC(=O)O
microsomal CLint (in vitro [2]; liver microsomes): < 3 µL/min/mg
LogD7.4 [6]: -0.59

CN(c1ccc(-c2cc(F)ccc2OCC(=O)O)c(Cl)c1)S(C)(=O)=O
LogD7.4 [6]: -1.17

CS(=O)(=O)c1ccc(-c2cc(C(F)(F)F)ccc2OCC(=O)O)c(Cl)c1
LogD7.4 [6]: -0.52
fraction unbound at 5 h (in vitro [8]; PPB): 0.0418
fraction unbound at 5 h (in vitro [9]): 0.0499

CCS(=O)(=O)c1ccc(-c2cc(Cl)ccc2OCC(=O)O)cc1
microsomal CLint (in vitro [2]; liver microsomes): < 3 µL/min/mg
LogD7.4 [6]: -0.78
fraction unbound at 5 h (in vitro [8]; PPB): 0.0274

CS(=O)(=O)c1ccc(-c2cc(Cl)ccc2OCC(=O)O)c(Cl)c1
LogD7.4 [6]: -0.75
fraction unbound at 5 h (in vitro [8]; PPB): 0.0251
fraction unbound at 5 h (in vitro [9]): 0.035

CCS(=O)(=O)c1ccc(-c2cc(Cl)ccc2OCC(=O)O)c(F)c1
microsomal CLint (in vitro [2]; microsomes): < 3 µL/min/mg
LogD7.4 [6]: -0.92
fraction unbound at 5 h (in vitro [8]; PPB): 0.0488
hepatocyte CLint (in vitro [3]): 4.24 µL/min/1e6 cells
pKa (physchem [7]): 3
fraction unbound at 5 h (in vitro [10]): 0.0084
fraction unbound at 5 h (in vitro [9]): 0.0568
hepatocyte CLint (in vitro [5]): < 3 µL/min/1e6 cells

CCS(=O)(=O)c1ccc(-c2cc(Cl)ccc2OCC(=O)O)c(C)c1
LogD7.4 [6]: -0.65

Cc1c(S(=O)(=O)c2ccc(Cl)cc2)c2c(NS(C)(=O)=O)cccc2n1CC(=O)O
pKa (physchem [7]): 2.8
logD (physchem [11]; pH 7.4, LogD7.4): -0.83
pKa (physchem [4]): 9.8

O=c1[nH]c2c(O)ccc([C@@H](O)CNCCc3cccc(CN4CCCC4)c3)c2s1
LogD7.4 [6]: -0.28

O=C(O)c1cc(O)cc(Cl)c1
pKa (physchem [7]): 3.81
pKa (physchem [4]): 8.57

N#Cc1ccc(C[C@@H](C(=O)O)N2CCC(CN3CCC(Oc4ccc(Cl)c(Cl)c4)CC3)CC2)cc1
solubility thermodynamic (physchem [1]): 53.7 µM (≈ 27.7 µg/mL)
pKa (physchem [12]): 7
fraction unbound at 5 h (in vitro [13]): 0.197
fraction unbound at 5 h (in vitro [8]; PPB): 0.0521
fraction unbound at 5 h (in vitro [10]): 0.166
fraction unbound at 5 h (in vitro [9]): 0.0968
pKa (physchem [14]): 8.9

O=C(O)C(c1ccccc1)N1CCC(CN2CCC(Oc3ccc(Cl)c(Cl)c3)CC2)CC1 (stereo not given)
microsomal CLint (in vitro [2]; microsomes): < 3 µL/min/mg
pKa (physchem [12]): 7.7
pKa (physchem [7]): 3
logD (physchem [11]; pH 7.4, LogD7.4): 2.17
pKa (physchem [14]): 9.6

O=C(O)c1ccccc1N1CCC(CN2CCC(Oc3ccc(Cl)c(Cl)c3)CC2)CC1
microsomal CLint (in vitro [2]; liver microsomes): 8 µL/min/mg
pKa (physchem [12]): 7.7
pKa (physchem [7]): 3.2
pKa (physchem [14]): 8.9

O=C(O)c1cccc(CN2CCC(CN3CCC(Oc4ccc(Cl)c(Cl)c4)CC3)CC2)c1
microsomal CLint (in vitro [2]; microsomes): < 3 µL/min/mg
pKa (physchem [12]): 7.7
pKa (physchem [7]): 3.5
pKa (physchem [14]): 9.6

O=C(O)[C@H](Cc1ccccc1)N1CCC(CN2CCC(Oc3ccc(Cl)c(Cl)c3)CC2)CC1
solubility thermodynamic (physchem [1]): 13.5 µM (≈ 6.63 µg/mL)
fraction unbound at 5 h (in vitro [15]): 0.58
microsomal CLint (in vitro [2]; liver microsomes): < 3 µL/min/mg
pKa (physchem [12]): 7.75
fraction unbound at 5 h (in vitro [13]): 0.154
pKa (physchem [7]): 3.1
fraction unbound at 5 h (in vitro [10]): 0.11
fraction unbound at 5 h (in vitro [9]): 0.183
pKa (physchem [14]): 9.25

O=C(NCC12CC3CC(CC(C3)C1)C2)c1cc(CN2CC3CNCC(C2)O3)ccc1Cl
microsomal CLint (in vitro [2]; microsomes): 15 µL/min/mg
pKa (physchem [12]): 9
fraction unbound at 5 h (in vitro [8]; PPB): 0.0467
hepatocyte CLint (in vitro [3]): 9 µL/min/1e6 cells
logD (physchem [11]; pH 7.4, LogD7.4): 1.55
pKa (physchem [14]): 10

O=C(O)CCCCCCCC(=O)O [AZELAIC ACID]
pKa (physchem [7]): 3.49
pKa (physchem [4]): 5.87

O=C1CC2(CCCC2)CC(=O)N1CCCCN1CCN(c2ncccn2)CC1 [BUSPIRONE]
solubility thermodynamic (physchem [1]): 1450 µM (≈ 557 µg/mL)
microsomal CLint (in vitro [2]; liver microsomes): 116 µL/min/mg
pKa (physchem [12]): 5.48
pKa (physchem [14]): 7.61
hepatocyte CLint (in vitro [5]): 38.9 µL/min/1e6 cells

CO[C@@]1(NC(=O)CSCC#N)C(=O)N2C(C(=O)O)=C(CSc3nnnn3C)CS[C@@H]21 [CEFMETAZOLE]
fraction unbound at 5 h (in vitro [8]; PPB): 0.194
pKa (physchem [7]): 3.37
pKa (physchem [4]): 10.2

CN(C)CCn1nnnc1SCC1=C(C(=O)O)N2C(=O)[C@@H](NC(=O)Cc3csc(N)n3)[C@H]2SC1 [CEFOTIAM]
pKa (physchem [12]): 4.61
pKa (physchem [7]): 2.41
pKa (physchem [14]): 8.18

COc1cc(N)c(Cl)cc1C(=O)NC1CCN(CCCOc2ccc(F)cc2)CC1OC (stereo not given) [CISAPRIDE]
LogD7.4 [6]: 3.56

CN1CCC[C@@H]1CCO[C@](C)(c1ccccc1)c1ccc(Cl)cc1 [CLEMASTINE]
LogD7.4 [6]: 3.48
logD (physchem [11]; pH 7.4, LogD7.4): 3.04

CC(C)/N=c1\cc2n(-c3ccc(Cl)cc3)c3ccccc3nc-2cc1Nc1ccc(Cl)cc1 [CLOFAZIMINE]
solubility thermodynamic (physchem [1]): 0.7 µM (≈ 0.331 µg/mL)
LogD7.4 [6]: 3.17
fraction unbound at 5 h (in vitro [9]): 0.0037
pKa (physchem [14]): 8.8

CN1CCN(C2=Nc3cc(Cl)ccc3Nc3ccccc32)CC1 [CLOZAPINE]
fraction unbound at 5 h (in vitro [15]): 0.0872
pKa (physchem [12]): 3.99
fraction unbound at 5 h (in vitro [8]): 0.0521
logD (physchem [11]; pH 7.4): 3.08
fraction unbound at 5 h (in vitro [10]): 0.0736
fraction unbound at 5 h (in vitro [9]): 0.0647

O=C(O)c1cc(=O)c2c(OCC(O)COc3cccc4oc(C(=O)O)cc(=O)c34)cccc2o1 [CROMOLYN]
pKa (physchem [7]): < 2
pKa (physchem [4]): < 2

COc1cc2ncnc(Nc3ccc(F)c(Cl)c3)c2cc1NC(=O)/C=C/CN1CCCCC1 [DACOMITINIB ANHYDROUS]
solubility thermodynamic (physchem [1]): 6.8 µM (≈ 3.2 µg/mL)
pKa (physchem [12]): 5.2
fraction unbound at 5 h (in vitro [8]; PPB): 0.0179
hepatocyte CLint (in vitro [3]): 9.77 µL/min/1e6 cells
logD (physchem [11]; pH 7.4, LogD7.4): 4.1
pKa (physchem [14]): 9.36
hepatocyte CLint (in vitro [5]): < 3 µL/min/1e6 cells

Clc1ccc2c(c1)CCc1cccnc1C2=C1CCNCC1 [DESLORATADINE]
pKa (physchem [12]): 4.57
fraction unbound at 5 h (in vitro [13]): 0.183
hepatocyte CLint (in vitro [3]): 26.9 µL/min/1e6 cells
logD (physchem [11]; pH 7.4): 1.48
fraction unbound at 5 h (in vitro [9]): 0.145
pKa (physchem [14]): 10

O=c1c2ccccc2[se]n1-c1ccccc1 [EBSELEN]
LogD7.4 [6]: 3.31

Clc1ccc(COC(Cn2ccnc2)c2ccc(Cl)cc2Cl)cc1 (stereo not given) [ECONAZOLE]
LogD7.4 [6]: 2.54

CC(CCc1ccccc1)NCC(O)c1ccc(O)c(C(N)=O)c1 (stereo not given) [LABETALOL]
LogD7.4 [6]: 1.06
fraction unbound at 5 h (in vitro [8]; PPB): 0.376

CCOC(=O)C1(c2ccccc2)CCN(C)CC1 [MEPERIDINE]
LogD7.4 [6]: 1.4

CCCc1c2oc(C(=O)O)cc(=O)c2cc2c(=O)cc(C(=O)O)n(CC)c12 [NEDOCROMIL]
pKa (physchem [7]): < 2
pKa (physchem [4]): < 2

CC1(C)NC(=O)N(c2ccc([N+](=O)[O-])c(C(F)(F)F)c2)C1=O [NILUTAMIDE]
solubility thermodynamic (physchem [1]): 234 µM (≈ 74.4 µg/mL)
LogD7.4 [6]: 1.74

CN1Cc2c(N)cccc2C(c2ccccc2)C1 (stereo not given) [NOMIFENSINE]
LogD7.4 [6]: 2.11
logD (physchem [11]; pH 7.4, LogD7.4): 2.08

NC(=O)N1c2ccccc2CC(=O)c2ccccc21 [OXCARBAZEPINE]
LogD7.4 [6]: 1.28

CN1CCN(CCCN2c3ccccc3Sc3ccc(Cl)cc32)CC1 [PROCHLORPERAZINE]
LogD7.4 [6]: 3.92

O=C(NO)c1ccccc1O [SALICYLHYDROXAMIC ACID]
microsomal CLint (in vitro [2]; liver microsomes): < 3 µL/min/mg
pKa (physchem [7]): 7.5
pKa (physchem [4]): 9.9

CC(C)(C)NC[C@H](O)COc1nsnc1N1CCOCC1 [TIMOLOL]
LogD7.4 [6]: -0.35 and -0.22
fraction unbound at 5 h (in vitro [8]; PPB): 0.597
hepatocyte CLint (in vitro [3]): > 150 µL/min/1e6 cells
hepatocyte CLint (in vitro [5]): 4.57 µL/min/1e6 cells

CN1CCN(CCCN2c3ccccc3Sc3ccc(C(F)(F)F)cc32)CC1 [TRIFLUOPERAZINE]
LogD7.4 [6]: 4.31
fraction unbound at 5 h (in vitro [8]; PPB): 0.0081
fraction unbound at 5 h (in vitro [9]): 0.007

CC(CN(C)C)CN1c2ccccc2CCc2ccccc21 (stereo not given) [TRIMIPRAMINE]
LogD7.4 [6]: 2.95
fraction unbound at 5 h (in vitro [8]; PPB): 0.069
